Laboratory results published in ChEMBL document CHEMBL1275549, “A new tetracycline efflux gene, tet(40), is located in tandem with tet(O/32/O) in a human gut firmicute bacterium and in metagenomic library clones” (Antimicrob Agents Chemother, 2008).
In brackets after ≈: the same amount, converted by molar mass.

What was measured:
[1] = test system: Escherichia coli; test: Antibacterial activity against Escherichia coli EPI300 expressing tet(W) gene assessed as inhibition of bacterial growth at 80 ug/ml after 18 hrs in presence of 2.5 ug/ml efflux pump inhibitor CCCP; values are per cent of control
[2] = test system: Escherichia coli; test: Antibacterial activity against Escherichia coli EPI300 expressing tet(W) gene assessed as inhibition of bacterial growth at 40 ug/ml after 18 hrs in presence of 2.5 ug/ml efflux pump inhibitor CCCP; values are per cent of control
[3] = test system: Escherichia coli; test: Antibacterial activity against Escherichia coli EPI300 expressing tet(W) gene assessed as bacterial growth at 60 ug/ml after 18 hrs in presence of 2.5 ug/ml efflux pump inhibitor CCCP
[4] = test system: Escherichia coli; test: Antibacterial activity against Escherichia coli EPI300 expressing tet(40) gene assessed as bacterial growth at 60 ug/ml after 18 hrs in presence of 2.5 ug/ml efflux pump inhibitor CCCP
[5] = test system: Escherichia coli; test: Antibacterial activity against Escherichia coli EPI300 expressing tet(40) gene assessed as inhibition of bacterial growth at 40 ug/ml after 18 hrs in presence of 2.5 ug/ml efflux pump inhibitor CCCP; values are per cent of control
[6] = test system: Escherichia coli; test: Antibacterial activity against Escherichia coli EPI300 expressing tet(40) gene assessed as bacterial growth at 80 ug/ml after 18 hrs in presence of 2.5 ug/ml efflux pump inhibitor […]
[7] = test system: Escherichia coli; test: Antibacterial activity against Escherichia coli EPI300 harboring plasmid GEM-T expressing tet(40) gene after 16 hrs; type: functional, organism-based; settings: EPI300, 16 h

For `CN(C)[C@@H]1C(O)=C(C(N)=O)C(=O)[C@@]2(O)C(O)=C3C(=O)c4c(O)cccc4[C@@](C)(O)[C@H]3C[C@@H]12` [TETRACYCLINE], the “growth, % of control” value [1] was 75.4%, the “growth, % of control” value [2] was 96.4% and the “growth, % of control” value [3] was 99.2%. For the same compound, the “growth, % of control” value [4] was 53.4%, the “growth, % of control” value [5] was 56.5% and the “growth, % of control” value [6] was 16.5%. It also gave an IC50 [7] of 60 µg/mL (≈ 135 µM).
